Measured values: patent US7109174B2, “Anticonvulsant derivatives useful for preventing the development of type II diabetes mellitus and syndrome X” (Ortho-McNeil Pharmaceutical, Inc., priority 2000, dated 2006)

Assays:
[1] = test system: Female db/db mice; assay: Oral glucose tolerance test (fasted) in female db/db mice after 11 days oral dosing; assay type: in vivo; conditions: for Oral Glucose Tolerance Test (fasted) Plasma Glucose: ± sem
Method: Female db/db mice (C57BLK S/J-m^+/^+ Lepr^db Jackson Labs, Bar Harbor, Me.), 7–8 weeks of age, were housed four per cage in solid-bottomed shoe box cages. Room temperature was maintained at 68–72° F. and humidity at 50–65%. Room lighting was on a 12-hour light/12-hour dark cycle. The mice were maintained on NIH Rat and Mouse/Auto 6F reduced fat diet #5K52 (PMI Nutrition Int'l Inc.). Food and water were supplied ad libitum.
Test compound and vehicle were dosed orally and prepared as suspensions in 0.5% hydroxypropylmethylcellulose (Dow Chemical, Midland, Mich.). The dosing volume was 10 mL/kg of body weight.
Different groups of female db/db mice (7–8/group) were orally gavaged daily for 11 days with either 0.5% methylcellulose in dH2O (vehicle), topiramate at 30 or 100 mg/kg/day or 2,3:4,5-bis-O-(1-methylethylidene)-β-L-fructopyranose sulfamate (hereinafter referred to as Compound V) at 30 or 100 mg/kg/day. On day 10, the animals were fasted for 20 hours before being tested for oral glucose tolerance (OGT). On day 11, four hours after the final dose for each group, an oral glucose tolerance test (OGTT) was performed by oral glucose administration of 2 g/kg. Animals were bled through tail clip at 0 (before glucose), 30, 60 and 120 min after glucose challenge. The blood samples were collected into heparinized CB microvettes and then put on ice. The plasma samples will be assayed for plasma glucose determination by using SIGMA DIAGNOSTICS Trinder reagent (Sigma, St. Louis, Mo.). Statistical analysis was performed using the program Instat (Graphpad, Monrovia, Calif.) and performing one-way ANOVA with a Dunnett's multiple comparison test.
Following the above described procedure, the effect of topiramate and compound V on oral glucose tolerance in female db/db mice, 7 mice/group, was determined, with results as listed in Table 9. The abbreviation N represents the number of animals per study group.

[2] = test system: male mice (ob/ob); assay: Old male ob/ob mice: topiramate in food for 110 days; body weight, HbA1C, glucose, triglycerides, insulin, skin lesions; assay type: in vivo; conditions: for BG / BW / HbA1c / Insulin / Triglycerides: 110 days; for initial total incidence of skin lesions: when the study initiated (before dosing)
Method: Five- to seven-week old male mice (ob/ob) were purchased from The Jackson Laboratory (Bar Harbor, Me.). Upon arrival the mice were quarantined for five days and housed individually in wire mesh cages with 2-inch square “nestlets”. The mice were maintained at an ambient temperature of 21 to 23° C. on a 12 hour-12 hour light-dark schedule and given access to water and powdered chow ad libitum.
Topiramate was administered orally as a trace constituent in the food (0.143 to 2.54 mg/g). A precise quantity of topiramate was mixed thoroughly into a known amount of powdered lab chow using a mortar and pestle to grind the drug into the chow, after which the contents were placed in a 165 ounce lidded polyethylene tub and blended by shaking and rotating the tub. The lab chow (5002M Certified Diet Meal, manufactured in Brentwood, Mo. by Purina Mills, Inc.) was not less than 20% protein, 4.5% fat, and 64.5% CHO. The quantity of topiramate added to the food was based on the consumption of chow recorded during the previous three- or four-day period. The powdered food was put into stainless steel/aluminum feeders designed to prevent the mice from dispersing, spilling or contaminating the food. Mice that were able to disperse or soil the food were excluded from the study.
Thirty two-week old mice were randomly divided into three groups: (1) a control group in which no topiramate was added to the food, and (2) a group in which topiramate was added to the food in amounts sufficient to give a daily dose of 20 mg/kg for the entire 110-day dosing period, and (3) a group in which topiramate was added to the food in amounts sufficient to give a daily dose of 60 mg/kg for the entire dosing period.
The animals in each group were monitored for body weight, food consumption, blood glucose, HbA1C, insulin, triglycerides and physical signs of Type II diabetes mellitus or poor health. Body weight and food consumption were recorded twice-weekly on a Monday/Thursday or Tuesday/Friday schedule 8 to 12 hours into the light portion of the light-dark cycle. Body weight and food consumption were recorded using a scale designed for weights under 200 g. […] The mice were checked for skin lesions, and if present, the degree of severity was noted and recorded. If the general health of a mouse had deteriorated to a degree considered life threatening the mouse was euthanized.
Mice were allowed access to food containing topiramate until a few hours before being sacrificed by decapitation. Blood was collected from the neck wound into a parafilm-lined funnel. The blood was then transferred into beakers containing heparin. Plasma was separated from red blood cells by centrifugation. The plasma was frozen for subsequent analyses. Blood glucose levels, insulin and triglycerides were quantitated in the plasma. Glycated hemoglobin was also measured. The glycated hemoglobin required a 50 μl sample of whole blood, which was removed from the funnel before centrifugation. The plasma samples were then collected without freezing. All samples were packed in ice and shipped on the day blood was collected for overnight delivery to AniLytics, Inc. (200 Girard St., Suite 200, Gaithersburg, Md. 20877). The samples analyzed by AniLytics were assayed using standard procedures established by commercial laboratories that perform blood chemistry analyses. Statistical analysis was performed to determine if the data passed a test for normality (fit a Gaussian distribution). […] The data for a group of TPM-treated mice were compared to the control group.
Following the above described procedure, the effect of topiramate (TPM) on body weight (BW), glycated hemoglobin (HbA1C), blood glucose levels (BG), triglyceride and insulin levels in male ob/ob mice, were determined, with results as listed in Table 11. The abbreviation N represents the number of animals per group.

[3] = test system: rodent models of epilepsy; conditions: several rodent models of epilepsy; cited from earlier work
[4] = test system: animal model of kindled epilepsy; conditions: cited from earlier work

Question: For `CC1(C)O[C@@H]2[C@@H](CO[C@@]3(COS(N)(=O)=O)OC(C)(C)O[C@@H]23)O1` [Topiramate, 2,3:4,5-bis-O-(1-methylethylidene)-β-D-fructopyranose sulfamate], which Oral Glucose Tolerance Test (fasted) Plasma Glucose ([1]; 30 mg/kg/day, 0 min (before glucose 2 g/kg)) is on record?
Answer: The Oral Glucose Tolerance Test (fasted) Plasma Glucose was 188 ± 16.7 mg/dL.

Question: And the Oral Glucose Tolerance Test (fasted) Plasma Glucose ([1]; 30 mg/kg/day, 30 min after glucose 2 g/kg)?
Answer: The Oral Glucose Tolerance Test (fasted) Plasma Glucose was 401 ± 68.4 mg/dL.

Question: And the Oral Glucose Tolerance Test (fasted) Plasma Glucose ([1]; 30 mg/kg/day, 60 min after glucose 2 g/kg)?
Answer: The Oral Glucose Tolerance Test (fasted) Plasma Glucose was 295 ± 31.5 mg/dL.

Question: What about the Oral Glucose Tolerance Test (fasted) Plasma Glucose ([1]; 30 mg/kg/day, 120 min after glucose 2 g/kg) of the same compound?
Answer: Its Oral Glucose Tolerance Test (fasted) Plasma Glucose is 124 ± 20 mg/dL.

Question: What about the Oral Glucose Tolerance Test (fasted) Plasma Glucose ([1]; 100 mg/kg/day, 0 min (before glucose 2 g/kg)) of the same compound?
Answer: The Oral Glucose Tolerance Test (fasted) Plasma Glucose was 160 ± 12.8 mg/dL.

Question: And the Oral Glucose Tolerance Test (fasted) Plasma Glucose ([1]; 100 mg/kg/day, 30 min after glucose 2 g/kg)?
Answer: Its Oral Glucose Tolerance Test (fasted) Plasma Glucose is 454 ± 38.5 mg/dL.

Question: And the Oral Glucose Tolerance Test (fasted) Plasma Glucose ([1]; 100 mg/kg/day, 60 min after glucose 2 g/kg)?
Answer: Its Oral Glucose Tolerance Test (fasted) Plasma Glucose is 271 ± 52.6 mg/dL.

Question: What about the Oral Glucose Tolerance Test (fasted) Plasma Glucose ([1]; 100 mg/kg/day, 120 min after glucose 2 g/kg) of the same compound?
Answer: Its Oral Glucose Tolerance Test (fasted) Plasma Glucose is 184 ± 32.3 mg/dL.

Question: What about the “elevated blood glucose levels induced by oral glucose challenge” value ([1]; 30 or 100 mg/kg/day) of the same compound?
Answer: The value was “suppressed”.

Question: And the fasting glucose levels ([1]; 30 or 100 mg/kg/day)?
Answer: The fasting glucose levels was “decreased”.

Question: What about the BG ([2]; 20 mg/kg daily in food, n = 6) of the same compound?
Answer: The BG was 229.2 ± 46.0 mg/dL.

Question: And the BW ([2]; 20 mg/kg daily in food, n = 6)?
Answer: The BW was 65.6 ± 2.8 g.

Question: And the HbA1c ([2]; 20 mg/kg daily in food, n = 6)?
Answer: The HbA1c was 4.98 ± 0.6%.

Question: And the Insulin ([2]; 20 mg/kg daily in food, n = 6)?
Answer: Its Insulin is 12.2 ± 1.9 ng/mL.

Question: What about the Triglycerides ([2]; 20 mg/kg daily in food, n = 6) of the same compound?
Answer: Its Triglycerides is 104 ± 6.4 mg/dL.

Question: And the “initial total incidence of skin lesions” value ([2]; 20 mg/kg group)?
Answer: The value was 38%.

Question: And the “mice died or had to be euthanized” value ([2]; 20 mg/kg, first 60 days of dosing)?
Answer: The value was “four”.

Question: What about the BW ([2]; 60 mg/kg daily in food, n = 7) of the same compound?
Answer: Its BW is 67.5 ± 1.6 g.

Question: What about the HbA1c ([2]; 60 mg/kg daily in food, n = 7) of the same compound?
Answer: The HbA1c was 3.56 ± 0.4%.

Question: What about the Insulin ([2]; 60 mg/kg daily in food, n = 7) of the same compound?
Answer: Its Insulin is 11.4 ± 2.1 ng/mL.

Question: And the Triglycerides ([2]; 60 mg/kg daily in food, n = 7)?
Answer: Its Triglycerides is 88 ± 3.2 mg/dL.

Question: What about the BG ([2]; 60 mg/kg daily in food, n = 7, P < 0.05) of the same compound?
Answer: The BG was 144.3 ± 20.0 mg/dL.

Question: And the “initial total incidence of skin lesions” value ([2]; 60 mg/kg group)?
Answer: Its value is 47%.

Question: What about the mice died ([2]; 60 mg/kg, first 60 days of dosing) of the same compound?
Answer: The mice died was “Two”.

Question: What about the “total incidence of lesions versus control” value ([2]; 60 mg/kg/day, dosing period between 62 and 110 days) of the same compound?
Answer: The value was “lower than in the control group”.

Question: And the seizure block [3]?
Answer: Its seizure block is “effectively block seizures”.

Question: And the seizure block [4]?
Answer: Its seizure block is “effectively block seizures”.
